{"source": "patent US20250000856A1", "about": "“CRYSTALLINE FORMS OF N-((1R,3S)-3-(4-ACETYLPIPERAZIN-1-YL)CYCLOHEXYL)-4-FLUORO-7-METHYL-1H-INDOLE-2-CARBOXAMIDE” (Epizyme, Inc., priority 2021, published 2025)", "test": "Pharmacokinetics of Free Base Forms I and II in male Beagle dogs after a single oral dose; Compound 1 plasma concentrations by LC-MS/MS", "format": "in vivo", "description": "In this study, male Beagle dogs were administered Free Base Form I and Free Base Form II at 25 mg/kg and 100 mg/kg (0.5% carboxymethylcellulose (CMC) and 0.1% Tween in water at pH 7). The dogs were fasted overnight and then offered food one hour prior to oral administration of the form. Blood samples were collected at predetermined timepoints up to 48 hours. Compound 1 plasma concentrations were determined by liquid chromatography with tandem mass spectrometry (LC-MS/MS) methods.", "key": {"[1]": {"settings": "25 mg/kg dose, versus Free Base Form I"}, "[2]": {"settings": "100 mg/kg dose, versus Free Base Form I"}}, "data": [{"smiles": "CC(=O)N1CCN([C@H]2CCC[C@@H](NC(=O)c3cc4c(F)ccc(C)c4[nH]3)C2)CC1", "note": "[Free Base Form II, N-((1R,3S)-3-(4-acetylpiperazin-1-yl)cyclohexyl)-4-fluoro-7-methyl-1H-indole-2-carboxamide]", "values": [{"measurement": "Compound 1 AUC0-inf greater than that of Free Base Form I", "setting": "[1]", "result": "~20", "unit": "%"}, {"measurement": "Compound 1 Cmax greater than that of Free Base Form I", "setting": "[1]", "result": "~40", "unit": "%"}, {"measurement": "AUC0-inf greater than that of Free Base Form I", "setting": "[2]", "result": 3.1, "unit": "fold"}, {"measurement": "Cmax greater than that of Free Base Form I", "setting": "[2]", "result": 1.8, "unit": "fold"}, {"measurement": "exposure in dogs compared with Free Base Form I", "setting": "oral 25 and 100 mg/kg, difference dose-dependent", "result": "unexpectedly greater exposure"}]}]}
